The source of these data is ChEMBL document CHEMBL4342507, “Targeting YAP Degradation by a Novel 1,2,4-Oxadiazole Derivative via Restoration of the Function of the Hippo Pathway” (ACS Med Chem Lett, 2020).

In assay [1] the target is Epidermal growth factor receptor (Homo sapiens) (UniProt P00533). Nature of the assay: Induction of EGFR degradation in human MDA-MB-231 cells assessed as suppression of EGFR expression at 0.05 to 0.6 uM by Western blot analysis. Format: cell-based.
Assay [2] concerns the target Hepatocyte growth factor receptor (Homo sapiens) (UniProt P08581). Kind of assay: Induction of c-MET degradation in human MDA-MB-231 cells assessed as suppression of c-MET expression at 0.05 to 0.6 uM by Western blot analysis. Type of assay: cell-based.

The source made the active and inactive calls. The calls are words filed in the database; no cut-off is given here.

Epidermal growth factor receptor (Homo sapiens), sequence (P00533 whole entry): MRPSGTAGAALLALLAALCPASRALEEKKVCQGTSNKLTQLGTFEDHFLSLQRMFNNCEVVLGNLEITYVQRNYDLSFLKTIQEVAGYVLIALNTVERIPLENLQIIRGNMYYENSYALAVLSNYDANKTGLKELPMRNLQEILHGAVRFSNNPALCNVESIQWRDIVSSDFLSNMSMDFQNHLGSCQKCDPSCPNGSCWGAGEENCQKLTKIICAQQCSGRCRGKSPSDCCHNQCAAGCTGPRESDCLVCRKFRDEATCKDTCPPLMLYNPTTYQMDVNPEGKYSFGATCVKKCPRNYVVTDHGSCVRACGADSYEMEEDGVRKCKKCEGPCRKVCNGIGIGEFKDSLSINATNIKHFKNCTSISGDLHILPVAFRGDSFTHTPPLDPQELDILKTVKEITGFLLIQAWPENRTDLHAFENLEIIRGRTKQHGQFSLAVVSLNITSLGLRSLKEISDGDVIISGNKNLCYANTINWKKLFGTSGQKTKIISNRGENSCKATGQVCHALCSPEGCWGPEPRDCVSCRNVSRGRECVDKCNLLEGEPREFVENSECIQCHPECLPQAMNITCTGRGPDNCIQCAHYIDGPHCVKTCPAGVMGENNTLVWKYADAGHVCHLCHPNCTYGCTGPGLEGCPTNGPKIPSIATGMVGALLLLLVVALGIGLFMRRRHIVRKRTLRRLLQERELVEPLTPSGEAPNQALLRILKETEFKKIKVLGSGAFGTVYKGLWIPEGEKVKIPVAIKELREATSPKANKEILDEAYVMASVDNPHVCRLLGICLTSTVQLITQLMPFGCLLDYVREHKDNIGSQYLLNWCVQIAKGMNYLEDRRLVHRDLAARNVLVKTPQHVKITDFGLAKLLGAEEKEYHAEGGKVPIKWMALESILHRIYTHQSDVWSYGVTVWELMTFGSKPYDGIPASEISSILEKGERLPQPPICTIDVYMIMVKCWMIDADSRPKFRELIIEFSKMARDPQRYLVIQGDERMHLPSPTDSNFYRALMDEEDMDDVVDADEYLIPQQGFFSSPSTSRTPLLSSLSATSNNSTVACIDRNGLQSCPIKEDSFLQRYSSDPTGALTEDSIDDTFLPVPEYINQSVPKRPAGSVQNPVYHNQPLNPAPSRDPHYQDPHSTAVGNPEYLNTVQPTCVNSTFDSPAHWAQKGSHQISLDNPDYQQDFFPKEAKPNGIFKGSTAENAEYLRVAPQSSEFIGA
Hepatocyte growth factor receptor (Homo sapiens), sequence (P08581 whole entry): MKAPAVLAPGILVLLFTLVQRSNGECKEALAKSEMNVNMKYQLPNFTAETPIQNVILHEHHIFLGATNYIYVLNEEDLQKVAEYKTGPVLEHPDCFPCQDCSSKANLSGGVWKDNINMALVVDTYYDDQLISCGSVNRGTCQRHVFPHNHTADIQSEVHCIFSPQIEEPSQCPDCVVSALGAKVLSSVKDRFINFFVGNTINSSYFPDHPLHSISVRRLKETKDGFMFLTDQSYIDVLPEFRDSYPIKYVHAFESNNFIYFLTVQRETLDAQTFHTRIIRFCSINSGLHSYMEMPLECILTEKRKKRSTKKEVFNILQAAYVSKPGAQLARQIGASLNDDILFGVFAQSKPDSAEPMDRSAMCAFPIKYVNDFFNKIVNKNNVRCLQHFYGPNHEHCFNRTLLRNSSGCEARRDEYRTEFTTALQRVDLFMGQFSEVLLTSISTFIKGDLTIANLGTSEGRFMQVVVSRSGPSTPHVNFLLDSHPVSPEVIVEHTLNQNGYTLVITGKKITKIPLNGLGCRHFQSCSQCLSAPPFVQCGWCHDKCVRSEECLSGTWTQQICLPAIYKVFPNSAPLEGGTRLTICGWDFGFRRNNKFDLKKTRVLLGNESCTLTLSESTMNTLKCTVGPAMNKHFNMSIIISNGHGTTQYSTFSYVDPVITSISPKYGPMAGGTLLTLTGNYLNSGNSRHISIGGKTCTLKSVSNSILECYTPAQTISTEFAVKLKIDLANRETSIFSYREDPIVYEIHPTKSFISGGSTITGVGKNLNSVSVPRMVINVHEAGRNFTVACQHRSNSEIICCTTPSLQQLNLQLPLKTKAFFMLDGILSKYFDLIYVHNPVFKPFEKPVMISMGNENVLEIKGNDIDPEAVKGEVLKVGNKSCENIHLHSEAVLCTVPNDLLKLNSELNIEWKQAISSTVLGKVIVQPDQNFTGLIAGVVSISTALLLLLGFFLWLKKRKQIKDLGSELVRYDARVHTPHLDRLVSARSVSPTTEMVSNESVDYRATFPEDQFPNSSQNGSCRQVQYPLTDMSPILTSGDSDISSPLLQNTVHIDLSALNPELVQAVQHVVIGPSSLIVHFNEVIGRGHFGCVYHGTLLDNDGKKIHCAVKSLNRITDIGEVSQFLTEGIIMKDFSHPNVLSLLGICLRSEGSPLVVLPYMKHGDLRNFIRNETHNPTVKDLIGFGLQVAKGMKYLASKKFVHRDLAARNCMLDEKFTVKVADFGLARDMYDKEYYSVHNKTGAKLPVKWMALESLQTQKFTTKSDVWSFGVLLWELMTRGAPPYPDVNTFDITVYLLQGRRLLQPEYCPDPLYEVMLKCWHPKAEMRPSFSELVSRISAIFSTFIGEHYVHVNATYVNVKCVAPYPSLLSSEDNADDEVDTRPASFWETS

With `O=C(Nc1cccc(-c2nc(-c3ccc(NC(=O)c4cccnc4)cc3Cl)no2)c1)Nc1ccc(NC(=O)C2CC2)c(C(F)(F)F)c1`, the outcome in assay [1] and in assay [2] was Active.
